These results are taken from patent US20240336657A1, “G-ALPHA-S PEPTIDE INHIBITORS AND USES THEREOF” (The Regents of the University of California, priority 2021, published 2024).

Data set [1] in a line: Plasma stability assay in human plasma. The format is in vitro ADME. The following applies: both sexes, pooled human plasma, 37° C., values represent 95% confidence intervals. The protocol:
These assays were conducted by Pharmaron Beijing CO., Ltd. Cyclic peptides working solutions were prepared at 10 μM in DMEM with 10% FBS (Avantor, Cat #76294-180) or human plasma (Pooled, Male & Female, BioIVT, Cat #HMN666664). The assays were performed in duplicate. Vials were incubated at 37° C. at 60 rpm in a water bath and taken at designated time points including 0, 480, 1080 and 1440 min. For each time point, the initiation of the reaction was staggered so all the time points were terminated with cold acetonitrile containing internal standards (IS, 100 nM alprazolam, 200 nM labetalol, 200 nM Imipramine and 2 μM ketoplofen) at the same time. Samples were vortexed then centrifuged at 4° C. to remove proteins. The supernatants from centrifugation were diluted by ultra-pure H2O and used for LC-MS/MS analysis. All calculations were carried out using GraphPad Prism. Remaining percentages of parent compounds at each time point were estimated by determining the peak area ratios from extractedion chromatograms.

For data set [2], the target named is GppNHp-bound Gαs (Homo sapiens, UniProt P63092). In words: Bio-layer interferometry (BLI) binding kinetics. Also on record: hexahistidine (N, cleaved yes); made in house; host or cells: Escherichia coli BL21(DE3). The protocol: BLI experiments were performed using an OctetRED384 instrument from ForteBio. All experiments were performed at 25° C. using BLI buffer (10 mM HEPES pH 7.4, 150 mM NaCl, 1 mM MgCl2, 0.05% Tween-20, 0.1% DMSO, 0.2 mM GppNHp or GDP). Cyclic peptides were diluted to a series of concentrations in BLI buffer plus 10 μM Biotin. Assays were conducted in Greiner 384well, black, flat bottom polypropylene plates containing the protein solutions, BLI buffer plus 10 μM Biotin for dissociation, and serial dilutions of cyclic peptides to be tested.
Biotinylated proteins were immobilized on Streptavidin biosensors by dipping sensors into plate wells containing protein solutions at a concentration of 100-150 nM. Protein loading is around 2-3 nm. Sensors loaded with proteins were moved and dipped into wells with BLI buffer plus 10 μM Biotin to block unlabeled Streptavidin. Association-dissociation cycles of compounds were started by moving and dipping sensors to cyclic peptides dilutions and BLI buffer plus 10 μM Biotin wells alternatively. Association and dissociation times were carefully determined to ensure full association and dissociation.
Raw kinetic data collected were processed with the Data Analysis software provided by the manufacturer using single reference subtraction in which buffer-only reference was subtracted (For GN13 analysis). Because GD20 analogs have a low level of background binding, we used a double reference subtraction (buffer-only reference and non-protein-loading reference) method to calculate their kinetics values. The resulting data were analyzed based on a 1:1 binding model from which kon and koff values were obtained and then Kd values were calculated.

Data set [3] concerns the target Gαs S275L (Homo sapiens, UniProt P63092, S275L). Put plainly: Adenylyl cyclase activity assay in membranes of GNAS KO HEK293 cells transfected with Gαs S275L. Also on record: expressed in transfected cells; host or cells: GNAS KO HEK293 cells (membranes). The following applies: Gαs S275L reintroduced. The format is biochemical. The source says:
To further assess the cellular specificity of GN13, we designed a GN13-resistant Gαs mutant based on structural analysis. […] We reasoned that mutating this serine residue to a bulky residue should create a drug-resistant Gαs mutant that blocks the GN13-Gαs interaction but would have little effect on adenylyl cyclase activation. […] By contrast, when the drug resistant mutant Gαs S275L was reintroduced into GNAS KO cells, the inhibitory effect of GN13 was abolished (FIG. 3I), providing further evidence that the observed pharmacological activity is due to GN13 binding to the switch II/α3 pocket in Gαs.
GN13 inhibition of Gαs proteins in HEK293 cell membranes (FIG. 17F and FIG. 18F).
a. Cell membrane preparation: HEK293cells, GNAS KO HEK293 cells were plated two day before transfection at a density of 1M cells per 10 cm plate. […] The protein concentrations were measured using BCA, and were normalized to 750 μg/mL. […] The cAMP concentrations were measured by the LANCE Ultra cAMP kit. […]
A cAMP standard curve was generated in the same plate using the 50 μM cAMP standard in the kit. […] 10 μL of each diluted sample was mixed with 5 μL of 4× Eu-cAMP tracer and 5 μL of 4× ULight-anti-cAMP in a white, opaque Optiplate-384 microplate, incubated for 1 hour at room temperature, and the time-resolved fluorescence resonance energy transfer (TR-FRET) signals were read on a Spark 20M plate reader. […]

Positions of bridges follow the written chain, without caps; N, C: chain ends. Non-standard residues stand in square brackets, D forms with d. Residues, ends and D or L forms follow the SMILES beside them.

Chain of Gαs S275L (P63092 whole entry S275L): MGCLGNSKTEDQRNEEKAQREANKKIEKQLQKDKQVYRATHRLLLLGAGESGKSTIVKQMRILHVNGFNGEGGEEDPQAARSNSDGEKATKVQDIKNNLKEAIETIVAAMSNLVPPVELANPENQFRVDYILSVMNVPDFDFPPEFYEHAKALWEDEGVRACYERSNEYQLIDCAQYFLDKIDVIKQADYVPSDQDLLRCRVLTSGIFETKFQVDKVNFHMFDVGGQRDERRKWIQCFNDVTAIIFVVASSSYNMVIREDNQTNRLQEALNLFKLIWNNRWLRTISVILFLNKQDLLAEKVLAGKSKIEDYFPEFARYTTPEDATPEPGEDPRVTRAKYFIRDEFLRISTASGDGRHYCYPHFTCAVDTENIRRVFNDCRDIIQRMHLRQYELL

`CC[C@H](C)[C@@H]1NC(=O)[C@H](CC(C)C)NC(=O)[C@@H](Cc2ccc(O)cc2)NC(=O)CSC[C@@H](C(=O)NCC(N)=O)NC(=O)[C@@H]2CCCN2C(=O)[C@H](CC(C)C)NC(=O)[C@H](CC(N)=O)NC(=O)[C@H](CC(C)C)NC(=O)[C@H](C)NC(=O)[C@H](Cc2c[nH]c3ccccc23)NC(=O)[C@H](CCC(N)=O)NC(=O)[C@H](CCCNC(=N)N)NC(=O)[C@H](Cc2ccccc2)NC(=O)[C@H]([C@@H](C)O)NC1=O` [GD20-F10L] ({CH2CO}-[dY]LITFRQWALNLPCG-NH2; thioether N-14): in data set [1], the half-life (usually how long it takes for the measured level to halve) at 10 μM was 7.16 to 12.7 h.

On to `CC[C@H](C)[C@@H]1NC(=O)[C@H](C)NC(=O)[C@H](Cc2ccc(O)cc2)NC(=O)[C@H](C(C)C)NC(=O)[C@H](CO)NC(=O)[C@H](CCC(=O)O)NC(=O)[C@H](Cc2ccccc2)NC(=O)[C@@H](Cc2ccc(O)cc2)NC(=O)CSC[C@@H](C(=O)NCC(N)=O)NC(=O)[C@H](CC(C)C)NC(=O)[C@H]([C@@H](C)O)NC(=O)CNC(=O)[C@H](Cc2c[nH]c3ccccc23)NC1=O` [GN13] ({CH2CO}-[dY]FESVYAIWGTLCG-NH2; thioether N-13), for which, in data set [2] (GppNHp/Gαs), the off-rate constant (koff) (commonly the rate constant with which the complex falls apart) was 0.0513 s⁻¹ and the on-rate (kon) – broadly, the rate constant with which the complex forms – amounted to 271000 M⁻¹ s⁻¹. Also, the Kd (commonly the constant that tells how readily two partners part at equilibrium) in data set [2] (immobilized GppNHp-bound Gαs) stood at 190 ± 20 nM. Moreover, the “inhibition of isoproterenol-mediated cAMP production in cell membranes” value in data set [3] is “abolished”.
